System: K-Ras wild type expressing 293 cells
Details: FIG. 6B
Description: SW480 and HT29 cells are both propagated at 37° C./5% CO2 and in RPMI+10% fetal bovine serum (FBS) and DMEM+10% FBS, respectively. Upon plating cells in microtiter plates, compounds are supplemented at various concentrations and viability is assessed within 24-72 hrs by manual or automated (Countess (Invitrogen)) trypan blue cytometry.

Cc1ccc(Nc2nc(N/N=C/c3cccc([N+](=O)[O-])c3O)nc(N3CCOCC3)n2)cc1 [A0383, 2-(hydroxynitroso)-6-[(1E)-(2-{4-[(4-methylphenyl)amino]-6-(morpholin-4-yl)-1,3,5-triazin-2-yl}hydrazin-1-ylidene)methyl]phenol]
general toxicity (293 cells not overexpressing mutant K-Ras, dosages 50-100 µM): lack of general toxicity | IC50 (read-out: IC50 (cell death, unspecific toxicity), K-Ras wild type expressing 293 cells): > 100 µM

Reference: patent US10668076B1, “Compositions and methods of targeting mutant K-Ras” (NantBio, Inc., priority 2011, dated 2020)
